Consider one compound from US7314644B2, “Extraction and purification method of active constituents from stem of Lonicera japonica thunb., its usage for anti-inflammatory and analgesic drug” (SK Chemicals Co., Ltd., priority 2002, dated 2008).

Holding throughout (format): in vivo
Data set [1] has as its system ICR mice. Kind of data set: Croton oil induced ear edema test.
Data set [2] has as its system ICR mice. Kind of data set: Arachidonic acid induced ear edema test.
Data set [3] has as its system ICR mice. Kind of data set: Acetic acid induced writhing test. A general note: An intraperitoneal irritant provokes the stretching counted in writhing tests.
The subject of another data set is SD rats. Kind of data set: Toxicity test (lethal dose, symptoms, weight, autopsy). The protocol: The active constituents of honeysuckle stem and sweroside, in the amount of 1.0 g/kg, 1.5 g/kg and 2.0 g/kg, were administered through the tail veins of SD rats (body weight: 120 to 170 g, 5 male and female rats for each administration dose, SLC, Japan), respectively, which had been fasted for 4 hours. […] An autopsy was conducted to identify presence of any abnormalities of organs.
The lethal dose of the active constituents of honeysuckle stem and sweroside was both over 5.0 g/kg for oral administration (no dead rats observed), and over 2.0 g/kg for intravenous injection (no dead rats observed).

As to `C=C[C@H]1[C@H](O[C@@H]2O[C@H](CO)[C@@H](O)[C@H](O)[C@H]2O)OC=C2C(=O)OCC[C@H]21` [Sweroside, sweroside], the “Rate of Inhibition (%)” value came to 49.8% in the data set on ICR mice [1] (Table 8, tail vein, 0.1 mg/kg); 56.2% in the data set with ICR mice [1] (Table 8, tail vein, 1 mg/kg); 65.7% in the data set on ICR mice [1] (Table 8, tail vein, 10 mg/kg); 31.9% in the data set on ICR mice [1] (Table 9, oral administration, 1 mg/kg); 43.1% in the data set on ICR mice [1] (Table 9, oral administration, 10 mg/kg); 57.8% in the data set with ICR mice [1] (Table 9, oral administration, 100 mg/kg). In addition, the “Rate of Inhibition (%)” value in the data set with ICR mice [2] (Table 10, tail vein, 0.1 mg/kg) is 48.3%; in the data set with ICR mice [2] (Table 10, tail vein, 1 mg/kg), 55.1%; in the data set on ICR mice [2] (Table 10, tail vein, 10 mg/kg) it was 69.1%; with ICR mice [2] (Table 11, oral administration, 1 mg/kg), 29.0%; in the data set with ICR mice [2] (Table 11, oral administration, 10 mg/kg) it was 34.7%; with ICR mice [2] (Table 11, oral administration, 100 mg/kg), 45.7%. In addition, the “Rate of Inhibition (%)” value in the data set with ICR mice [3] (Table 12, tail vein, 0.1 mg/kg) came out at 74.6%; with ICR mice [3] (Table 12, tail vein, 1 mg/kg), 86.4%; in the data set with ICR mice [3] (Table 12, tail vein, 10 mg/kg) it was 89.7%; in the data set with ICR mice [3] (Table 13, oral administration, 1 mg/kg) it was 65.9%; in the data set with ICR mice [3] (Table 13, oral administration, 10 mg/kg), 79.1%; in the data set on ICR mice [3] (Table 13, oral administration, 100 mg/kg), 87.9%. In the data set with SD rats (2.0 g/kg intravenously injected, restored soon), the general symptoms result is “increased respiration counts and decreased activity for about 10 minutes”. The autopsy result in the data set with SD rats (as is the case with the control groups) was “no abnormalities”. In addition, the weight change entry with SD rats (observed for 2 weeks after administration) is “no change in weight”.
